Experiment [1] is described as follows: Inhibition of farnesyltransferase (unknown origin). Set-up: species or system Homo sapiens.
Experiment [2] can be described thus: Inhibition of NDM-1 (unknown origin) using imipenem as substrate by spectrophotometric assay. Set-up: species or system Homo sapiens.
Experiment [3] can be described thus: Inhibition of VIM-2 (unknown origin). Set-up: species or system Homo sapiens.
A short description of experiment [4]: Inhibition of NDM-1 (unknown origin). Details: species or system Homo sapiens.
Experiment [5] deals with T1, Lethal factor (Bacillus anthracis, UniProt P15917).
T1 sequence (P15917 whole entry): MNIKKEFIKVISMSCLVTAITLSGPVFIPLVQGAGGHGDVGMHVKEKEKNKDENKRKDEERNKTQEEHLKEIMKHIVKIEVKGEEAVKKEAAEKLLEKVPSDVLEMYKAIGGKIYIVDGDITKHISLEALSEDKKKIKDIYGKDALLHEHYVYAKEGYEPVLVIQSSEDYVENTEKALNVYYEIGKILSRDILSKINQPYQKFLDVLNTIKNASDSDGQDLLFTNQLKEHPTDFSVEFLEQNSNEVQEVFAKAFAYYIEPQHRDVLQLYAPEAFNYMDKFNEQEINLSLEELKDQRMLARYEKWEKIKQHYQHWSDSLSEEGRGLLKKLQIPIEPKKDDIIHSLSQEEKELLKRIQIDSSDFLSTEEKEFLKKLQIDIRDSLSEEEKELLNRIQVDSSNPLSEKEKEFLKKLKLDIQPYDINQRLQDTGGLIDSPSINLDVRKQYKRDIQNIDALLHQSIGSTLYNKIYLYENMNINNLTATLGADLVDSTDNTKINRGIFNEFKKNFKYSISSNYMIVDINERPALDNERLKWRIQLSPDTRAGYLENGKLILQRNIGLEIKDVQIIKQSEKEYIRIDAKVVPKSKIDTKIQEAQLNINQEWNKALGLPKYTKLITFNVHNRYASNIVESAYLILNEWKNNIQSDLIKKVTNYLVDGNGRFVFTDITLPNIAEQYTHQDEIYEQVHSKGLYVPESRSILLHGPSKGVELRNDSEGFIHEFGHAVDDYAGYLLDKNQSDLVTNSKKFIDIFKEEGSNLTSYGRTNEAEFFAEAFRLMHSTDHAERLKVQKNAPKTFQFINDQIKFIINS
The experiment is described as follows: Binding affinity to Bacillus anthracis lethal factor assessed as inhibition constant.

Experiment [6] concerns the target T2, Disintegrin and metalloproteinase domain-containing protein 10 (Homo sapiens, UniProt O14672).
T2 sequence (O14672 whole entry): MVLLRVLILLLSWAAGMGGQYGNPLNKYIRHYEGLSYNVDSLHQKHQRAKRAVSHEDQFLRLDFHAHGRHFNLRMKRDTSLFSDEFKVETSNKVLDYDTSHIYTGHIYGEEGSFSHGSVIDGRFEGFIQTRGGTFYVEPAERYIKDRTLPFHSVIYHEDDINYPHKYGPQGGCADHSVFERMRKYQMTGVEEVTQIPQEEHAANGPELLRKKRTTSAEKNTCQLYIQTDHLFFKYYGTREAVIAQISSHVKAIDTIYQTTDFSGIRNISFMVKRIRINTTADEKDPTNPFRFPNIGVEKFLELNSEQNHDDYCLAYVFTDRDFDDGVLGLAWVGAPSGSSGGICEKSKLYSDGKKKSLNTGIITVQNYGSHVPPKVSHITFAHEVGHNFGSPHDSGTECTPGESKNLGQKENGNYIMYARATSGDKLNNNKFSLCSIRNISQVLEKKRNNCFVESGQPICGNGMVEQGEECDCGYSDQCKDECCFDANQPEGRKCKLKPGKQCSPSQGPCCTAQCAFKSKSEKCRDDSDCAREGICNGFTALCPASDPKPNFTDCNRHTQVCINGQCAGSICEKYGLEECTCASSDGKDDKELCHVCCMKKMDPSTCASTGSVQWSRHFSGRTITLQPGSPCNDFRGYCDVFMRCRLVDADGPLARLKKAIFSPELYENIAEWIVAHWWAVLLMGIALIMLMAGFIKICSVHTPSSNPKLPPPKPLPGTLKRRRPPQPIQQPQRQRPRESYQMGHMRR
The experiment is described as follows: Inhibition of human ADAM10 using (biotin-SPLAQAVRSSSRTP(3H)S-NH2) as a substrate by streptavidin-coated scintillation proximity assay.

The target of experiment [7] is Disintegrin and metalloproteinase domain-containing protein 17 (Homo sapiens, UniProt P78536). In words: Inhibition of human ADAM17.
Disintegrin and metalloproteinase domain-containing protein 17, sequence (P78536 whole entry, the tested form may be a part): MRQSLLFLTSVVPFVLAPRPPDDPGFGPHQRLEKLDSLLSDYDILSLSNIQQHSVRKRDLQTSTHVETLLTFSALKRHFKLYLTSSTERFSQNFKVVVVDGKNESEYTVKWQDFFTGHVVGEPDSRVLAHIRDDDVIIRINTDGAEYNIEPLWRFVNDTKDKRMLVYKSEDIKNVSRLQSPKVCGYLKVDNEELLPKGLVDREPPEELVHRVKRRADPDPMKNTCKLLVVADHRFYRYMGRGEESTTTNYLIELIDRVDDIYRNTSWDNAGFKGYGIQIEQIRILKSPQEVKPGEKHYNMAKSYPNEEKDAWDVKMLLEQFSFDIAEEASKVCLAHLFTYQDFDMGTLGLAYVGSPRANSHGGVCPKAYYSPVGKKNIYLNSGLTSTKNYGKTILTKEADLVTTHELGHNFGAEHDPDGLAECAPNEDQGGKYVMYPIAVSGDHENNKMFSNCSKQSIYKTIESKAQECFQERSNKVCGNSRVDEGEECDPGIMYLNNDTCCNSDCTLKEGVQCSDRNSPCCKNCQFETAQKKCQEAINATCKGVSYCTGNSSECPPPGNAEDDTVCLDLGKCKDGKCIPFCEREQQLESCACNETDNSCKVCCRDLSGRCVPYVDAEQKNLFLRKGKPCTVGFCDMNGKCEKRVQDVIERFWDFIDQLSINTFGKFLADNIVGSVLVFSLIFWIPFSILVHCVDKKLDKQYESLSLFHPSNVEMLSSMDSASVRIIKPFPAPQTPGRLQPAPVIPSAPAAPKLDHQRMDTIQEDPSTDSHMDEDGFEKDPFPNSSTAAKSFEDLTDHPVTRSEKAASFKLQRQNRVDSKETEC
In experiment [8] the target is T3, Adenosine deaminase (Homo sapiens, UniProt P00813).
T3 sequence (P00813 whole entry): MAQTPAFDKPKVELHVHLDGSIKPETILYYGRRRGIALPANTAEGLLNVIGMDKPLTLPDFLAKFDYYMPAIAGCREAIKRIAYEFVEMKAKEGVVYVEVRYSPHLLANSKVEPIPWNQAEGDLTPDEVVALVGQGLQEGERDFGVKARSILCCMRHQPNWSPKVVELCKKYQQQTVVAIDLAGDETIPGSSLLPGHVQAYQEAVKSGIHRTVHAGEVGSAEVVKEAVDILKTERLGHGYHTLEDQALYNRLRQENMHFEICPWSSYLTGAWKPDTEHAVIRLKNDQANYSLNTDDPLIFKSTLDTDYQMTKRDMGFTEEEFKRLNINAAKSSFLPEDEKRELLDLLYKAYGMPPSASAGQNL
The experiment is described as follows: Binding affinity to ADA (unknown origin) assessed as inhibition constant.

The target of experiment [9] is T1, Lethal factor. The experiment is described as follows: Inhibition of Bacillus anthracis lethal factor.

Molecules are shown by their SMILES. Starred links: 1 amine or outer side, 2 acyl side, 3 side chain; linkers in the order of their positions; H or OH if unused. Residues, ends and D or L forms follow the SMILES beside them. *: point of attachment. CO = O=C([*:1])[*:2]; N(Me)OMe = CON(C)*

In [1], `CCC(C)[C@@H](CO[C@@H](Cc1ccccc1)C(=O)N[C@@H](CCS(C)(=O)=O)C(=O)O)NC[C@@H](N)CS` (some centres not stated) came in with an IC50 of 240 nM.

Consider `C[C@@H](CS)C(=O)N1CCC[C@H]1C(=O)O`, for which 7.9 nM corresponded to half-maximal inhibition in experiment [2] (IC50).

For `O=C(O)c1nccn1Cc1ccccc1`, the IC50 in [3] was 0.45 nM; in experiment [4], 66700 nM.

Consider `N[C@@H](CN[C@@H](CN[C@@H](CC(=O)O)C(=O)O)C(=O)O)C(=O)O`, for which the half-maximal inhibitory concentration (IC50) in [4] came out at 7000 nM.

With `CCN(CCCC[C@@H](C[C@@H](OC)c1ccc(F)cc1)C(=O)NO)c1ccc(F)cc1`, the inhibitory constant (Ki) in [5] is 0.27 nM.

Turning to `CNC(=O)[C@@H](NC(=O)C(CCCc1ccccc1)[C@H](C)N(O)C=O)C(C)(C)C` (some centres not stated), the figures for the IC50 in [6] and in experiment [7] were 5.3 nM and 541 nM, respectively.

As for `CON(C)C(=O)N[C@@H](CCCNC(=N)N)C(=O)N[C@@H](CC(C)C)C(=O)N[C@H](C(=O)N[C@@H](CCCNC(=N)N)C(=O)O)C(C)C` ({N(Me)OMe-CO}-RLVR-OH), the Ki in experiment [5] was found to be 6.4 nM.

For `CCCCCC[C@H]([C@H](C)O)n1cnc2c(N)ncnc21` [(+)-EHNA], in experiment [8], the Ki was 1 nM.

For `O=C(O[C@@H]1Cc2c(O)cc(O)cc2O[C@@H]1c1cc(O)c(O)c(O)c1)c1cc(O)c(O)c(O)c1` [EPIGALOCATECHIN GALLATE], in [9], the IC50 was 97 nM.

As for `NC[C@@H]1O[C@H](O[C@H]2[C@@H](O)[C@H](O[C@@H]3[C@@H](O)[C@H](N)C[C@H](N)[C@H]3O[C@H]3O[C@H](CN)[C@@H](O)[C@H](O)[C@H]3N)O[C@@H]2CO)[C@H](N)[C@@H](O)[C@@H]1O` [FRAMYCETIN], the Ki in [5] was 7 nM.

(Values after ChEMBL document CHEMBL5150007, “Zinc enzymes in medicinal chemistry” (Eur J Med Chem, 2021).)
